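How tested: cells in 96-well plates exposed to compound for 48 hours at five concentrations. GI50 marks 50% less growth. TGI: total growth inhibition.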
Assays:
Assay in all cases: NCI anticancer screen, dose series, 48 h
[1] = test system: HCC-2998 colon
[2] = test system: BT-549 breast
[3] = test system: EKVX NSCLC
[4] = test system: M14 melanoma
[5] = test system: SN12C renal
[6] = test system: U251 CNS
[7] = test system: OVCAR-4 ovarian
[8] = test system: MDA-MB-435
[9] = test system: RXF 393 renal
[10] = test system: DU-145 prostate
[11] = test system: OVCAR-8 ovarian
[12] = test system: NCI-H23 lung
[13] = test system: 786-0 renal
[14] = test system: NCI-H460 lung
[15] = test system: TK-10 renal
[16] = test system: OVCAR-3 ovarian
[17] = test system: SR leukemia
[18] = test system: HL-60(TB) leukemia
[19] = test system: LOX IMVI melanoma
[20] = test system: MDA-MB-231 breast
[21] = test system: ACHN renal
[22] = test system: CCRF-CEM leukemia
[23] = test system: HCT-116 colon
[24] = test system: KM12 colon
[25] = test system: MOLT-4 leukemia
[26] = test system: PC-3 prostate
[27] = test system: SNB-75 CNS
[28] = test system: SF-539 CNS
[29] = test system: NCI-H522 lung
[30] = test system: T-47D breast
[31] = test system: HOP-62 NSCLC
[32] = test system: HS 578T breast
[33] = test system: HOP-92 NSCLC
[34] = test system: SF-268 CNS
[35] = test system: MCF7 breast
[36] = test system: A498 renal
[37] = test system: OVCAR-5 ovarian
[38] = test system: COLO 205 colon
[39] = test system: K-562 leukemia
[40] = test system: HCT-15 colon
[41] = test system: NCI-H226 lung
[42] = test system: SK-OV-3 ovarian
[43] = test system: HT29 colon
[44] = test system: SNB-19 CNS
[45] = test system: RPMI-8226 leukemia
[46] = test system: NCI/ADR-RES ovarian
[47] = test system: SK-MEL-5 melanoma
[48] = test system: SK-MEL-2 melanoma
[49] = test system: A549 NSCLC
[50] = test system: UO-31 renal
[51] = test system: SK-MEL-28 melanoma
[52] = test system: UACC-62 melanoma
[53] = test system: MALME-3M melanoma
[54] = test system: IGROV1 ovarian
[55] = test system: SF-295 CNS
[56] = test system: SW-620 colon
[57] = test system: UACC-257 melanoma
[58] = test system: CAKI-1 renal

## C=C(C=O)C1CCC2(C(=O)O)CCC3(C)C(CCC4C5(C)CCC(O)C(C)(C)C5CCC43C)C12 (centres undefined)
[1]
  GI50: 1930 nM
  TGI: 3360 nM
[2]
  GI50: 1680 nM
  TGI: 6.67 µM
[3]
  GI50: 6.23 µM
  TGI: > 61.7 µM
[4]
  GI50: 2230 nM
  TGI: 6.92 µM
[5]
  GI50: 4090 nM
  TGI: > 89.9 µM
[6]
  GI50: 1640 nM
  TGI: 3.74 µM
[7]
  GI50: 4830 nM
  TGI: 22.2 µM
[8]
  GI50: 2740 nM
  TGI: 24.3 µM
[9]
  GI50: 1340 nM
  TGI: 2990 nM
[10]
  GI50: 1600 nM
  TGI: 3.55 µM
[11]
  GI50: 4090 nM
  TGI: 32.2 µM
[12]
  GI50: 1630 nM
  TGI: 3300 nM
[13]
  GI50: 2480 nM
  TGI: 6.73 µM
[14]
  GI50: 2050 nM
  TGI: 4.43 µM
[15]
  GI50: 4040 nM
  TGI: 18.1 µM
[16]
  GI50: 1440 nM
  TGI: 2870 nM
[17]
  GI50: 2230 nM
  TGI: > 100000 nM
[18]
  GI50: 4100 nM
  TGI: > 100000 nM
[19]
  GI50: 1570 nM
  TGI: 3110 nM
[20]
  GI50: 4920 nM
  TGI: 50.4 µM
[21]
  GI50: 1690 nM
  TGI: 3230 nM
[22]
  GI50: 2680 nM
  TGI: > 46.6 µM
[23]
  GI50: 1400 nM
  TGI: 2.83 µM
[24]
  GI50: 1610 nM
  TGI: 3.39 µM
[25]
  GI50: 3790 nM
  TGI: > 100000 nM
[26]
  GI50: 2760 nM
  TGI: 23.2 µM
[27]
  GI50: 10.8 µM
  TGI: 32.6 µM
[28]
  GI50: 2830 nM
  TGI: 8.06 µM
[29]
  GI50: 1960 nM
  TGI: 5000 nM
[30]
  GI50: 5190 nM
  TGI: 34.1 µM
[31]
  GI50: 4930 nM
  TGI: 19.7 µM
[32]
  GI50: 10.1 µM
  TGI: > 100000 nM
[33]
  GI50: 19.7 µM
  TGI: 64.6 µM
[34]
  GI50: 2150 nM
  TGI: 10.5 µM
[35]
  GI50: 2760 nM
  TGI: 14.3 µM
[36]
  GI50: 4770 nM
  TGI: 14.4 µM
[37]
  GI50: 2990 nM
  TGI: 6.82 µM
[38]
  GI50: 2640 nM
  TGI: 6.18 µM
[39]
  GI50: 2720 nM
  TGI: > 100 µM
[40]
  GI50: 1650 nM
  TGI: 4.47 µM
[41]
  GI50: 14.3 µM
  TGI: > 100 µM
[42]
  GI50: 7.37 µM
  TGI: 19.6 µM
[43]
  GI50: 2650 nM
  TGI: 7.39 µM
[44]
  GI50: 8.18 µM
  TGI: 20.8 µM
[45]
  GI50: 2640 nM
  TGI: > 100000 nM
[46]
  GI50: 1790 nM
  TGI: 5.57 µM
[47]
  GI50: 1520 nM
  TGI: 2840 nM
[48]
  GI50: 3820 nM
  TGI: 12 µM
[49]
  GI50: 4580 nM
  TGI: 28.7 µM
[50]
  GI50: 627 nM
  TGI: 2160 nM
[51]
  GI50: 1960 nM
  TGI: 4.62 µM
[52]
  GI50: 1640 nM
  TGI: 3570 nM
[53]
  GI50: 2330 nM
  TGI: 7.99 µM
[54]
  GI50: 1920 nM
  TGI: 4210 nM
[55]
  GI50: 3390 nM
  TGI: 15.1 µM
[56]
  GI50: 1990 nM
  TGI: 5070 nM
[57]
  GI50: 2050 nM
  TGI: 5.48 µM

## C#Cc1cccc(Nc2ncnc3cc(OC)c(OCCCCCCC(=O)NO)cc23)c1
[1]
  GI50: 217 nM
  TGI: 1340 nM
[2]
  GI50: 783 nM
  TGI: 5.69 µM
[3]
  GI50: 0.154 µM
  TGI: 6.34 µM
[4]
  GI50: 210 nM
  TGI: 1.99 µM
[5]
  GI50: 129 nM
  TGI: 4.21 µM
[6]
  GI50: 151 nM
  TGI: 4.07 µM
[7]
  GI50: 374 nM
  TGI: 5.34 µM
[8]
  GI50: 145 nM
  TGI: 0.528 µM
[9]
  GI50: 75.2 nM
  TGI: 367 nM
[10]
  GI50: 136 nM
  TGI: 4.45 µM
[11]
  GI50: 117 nM
  TGI: 4.43 µM
[12]
  GI50: 383 nM
  TGI: 2570 nM
[13]
  GI50: 448 nM
  TGI: 4.68 µM
[14]
  GI50: 444 nM
  TGI: 4.31 µM
[15]
  GI50: 185 nM
  TGI: 2.36 µM
[16]
  GI50: 129 nM
  TGI: 1640 nM
[17]
  GI50: 21.9 nM
  TGI: 2090 nM
[18]
  GI50: 334 nM
  TGI: 1700 nM
[19]
  GI50: 195 nM
  TGI: 1810 nM
[20]
  GI50: 274 nM
  TGI: 2.29 µM
[21]
  GI50: 127 nM
  TGI: 2480 nM
[22]
  GI50: 40.4 nM
  TGI: 5.85 µM
[23]
  GI50: 79.1 nM
  TGI: 3.33 µM
[24]
  GI50: 197 nM
  TGI: 3.46 µM
[25]
  GI50: 86.4 nM
  TGI: 1930 nM
[26]
  GI50: 273 nM
  TGI: 5.38 µM
[27]
  GI50: 0.0267 µM
  TGI: 0.468 µM
[28]
  GI50: 198 nM
  TGI: 1.34 µM
[29]
  GI50: 30.5 nM
  TGI: 430 nM
[30]
  GI50: 46.5 nM
  TGI: 0.495 µM
[31]
  GI50: 311 nM
  TGI: 4.57 µM
[32]
  GI50: 0.086 µM
  TGI: 1040 nM
[33]
  GI50: 0.0512 µM
  TGI: 0.415 µM
[34]
  GI50: 379 nM
  TGI: 2.65 µM
[35]
  GI50: 190 nM
  TGI: 3.5 µM
[36]
  GI50: 162 nM
  TGI: 0.662 µM
[37]
  GI50: 121 nM
  TGI: 3 µM
[38]
  GI50: 157 nM
  TGI: 0.538 µM
[39]
  GI50: 81.7 nM
[40]
  GI50: 1170 nM
  TGI: 6.1 µM
[58]
  GI50: 261 nM
  TGI: 3.04 µM
[41]
  GI50: 0.853 µM
  TGI: 4.81 µM
[42]
  GI50: 0.208 µM
  TGI: 1.03 µM
[43]
  GI50: 253 nM
  TGI: 5.33 µM
[44]
  GI50: 0.115 µM
  TGI: 3.65 µM
[45]
  GI50: 302 nM
  TGI: 1780 nM
[46]
  GI50: 917 nM
  TGI: 6.91 µM
[47]
  GI50: 177 nM
  TGI: 496 nM
[48]
  GI50: 309 nM
  TGI: 1.85 µM
[49]
  GI50: 404 nM
  TGI: 4.45 µM
[50]
  GI50: 141 nM
  TGI: 2690 nM
[51]
  GI50: 136 nM
  TGI: 1.47 µM
[52]
  GI50: 79.7 nM
  TGI: 344 nM
[53]
  GI50: 37 nM
  TGI: 0.763 µM
[54]
  GI50: 86.4 nM
  TGI: 476 nM
[55]
  GI50: 311 nM
  TGI: 2.18 µM
[56]
  GI50: 58 nM
  TGI: 319 nM
[57]
  GI50: 123 nM
  TGI: 1.12 µM
